Starred links: 1 amine or outer side, 2 acyl side, 3 side chain; linkers in the order of their positions; H or OH if unused. Positions of bridges follow the written chain, without caps; N, C: chain ends. Non-standard residues stand in square brackets, D forms with d. Residues, ends and D or L forms follow the SMILES beside them. Groups on a side chain read outwards from the residue. Primed or numbered codes have the meaning given here. *: point of attachment. MeHseMe″ = (2S)-4-methoxy-2-(methylamino)butanoic acid (N-methyl-O-methyl-L-homoserine), COCC[C@@H](C(=O)[*:2])N(C)[*:1]; F4aao = 4-(carboxymethoxy)-L-phenylalanine, O=C([C@H](Cc1ccc(OCC(=O)[*:3])cc1)N[*:1])[*:2]; Phe(4-(1-Me-pyrazol-4-yl)) = Cn1cc(-c2ccc(C[C@H](N)C(=O)O)cc2)cn1; SulfoCy5″ = sulfo-Cyanine5 hexanoyl dye as amide on the lysine NZ; TMe = O-methyl-L-threonine, CO[C@H](C)[C@H](N[*:1])C(=O)[*:2]; NMeAla(isoquinolin-7-yl) = CN[C@@H](Cc1ccc2ccncc2c1)C(=O)O; Phe(4-CH2COOH) = N[C@@H](Cc1ccc(CC(=O)O)cc1)C(=O)O; 3Pal(6-Ph) = N[C@@H](Cc1ccc(-c2ccccc2)nc1)C(=O)O; Phe(4-COOH) = N[C@@H](Cc1ccc(C(=O)O)cc1)C(=O)O; Piperazinyl(4-CH2COOH) = O=C(O)CN1CCN(*)CC1; NMe2Nal = CN[C@@H](Cc1ccc2ccccc2c1)C(=O)O; X1 = CO[C@@H](O)[C@H](N[*:1])C(=O)[*:2]; AEF = NCCOc1ccc(C[C@H](N)C(=O)O)cc1; NMeI = CC[C@H](C)[C@H](NC)C(=O)O; NMeQ = CN[C@@H](CCC(N)=O)C(=O)O; NMehSer = CN[C@@H](CCO)C(=O)O; NMeK = CN[C@@H](CCCCN)C(=O)O; NMeDap = CN[C@@H](CN)C(=O)O; NMeC = CN[C@@H](CS)C(=O)O; Carboxymethyl = O=C(O)C*; NMeA = CN[C@@H](C)C(=O)O; CO = O=C([*:1])[*:2]
B1: PLD-30 (peptide)
peptide: {CH2CO}-[NMeK](SulfoCy5″)[NMeI]D[NMeQ][Phe(4-COOH)][TMe]I[F4aao][NMeAla(isoquinolin-7-yl)]G[3Pal(6-Ph)][NMeC]-NH2
modifications: thioether N-12
B2: Mod3 (peptide)
peptide: {CH2CO}-[NMeA][MeHseMe″]D[NMeQ][Phe(4-COOH)][TMe]I[AEF][NMe2Nal]G[3Pal(6-Ph)][NMeC]-NH2
modifications: thioether N-12; not fully specified (residue 8)

What follows are molecules tested against Human Glypican3-Fc (Homo sapiens, UniProt P51654) (assay: SPR binding to Glypican-3, Method B-3 (Glypican3-Fc captured on Protein A chip, 5-point dilution series)). Details: SPR method B-3.
Protocol: A Protein A sensor chip (Cytiva) was inserted into a Biacore T200 (Cytiva), priming was performed three times with a running buffer: HBS-P+, pH 7.4 (Cytiva), and equilibration was carried out at a flow rate of 30 μL/min. Glypican3-Fc was allowed to react for 60 seconds at a flow rate of 10 μL/min. After capturing human Glypican3-Fe, a peptide solution prepared to 10 mM in DMSO solution was diluted with a running buffer to a final concentration of 10 μM. After that, 5 serial dilution series (100 nM, 50 nM, 25 nM, 10 nM, 5 nM) of peptide solutions were prepared. Using the above samples, peptide kinetics for Glypican3 was obtained by SPR measurement. Kinetics evaluation of Glypican3 was performed by SPR measurements at a flow rate of 10 LL/min, setting the association time to 120 seconds and the disassociation time to 600 seconds.
The obtained data by Method B-1, Method B-2, Method B-3 and Method B-4 were analyzed by follow. Single Cycle Kinetics was used as the kinetics evaluation model, and curve fitting was performed using Biacore T200 Evaluation Software Version 3.0 (Cytiva).

| Molecule | Kd [nM] |
| --- | --- |
| CC[C@H](C)[C@@H]1NC(=O)[C@H]([C@@H](C)OC)NC(=O)[C@H](Cc2ccc(C(=O)O)cc2)NC(=O)[C@H](CCC(N)=O)N(C)C(=O)[C@H](CC(=O)O)NC(=O)[C@H](CCOC)N(C)C(=O)[C@H](C)N(C)C(=O)CSC[C@@H](C(N)=O)N(C)C(=O)[C@H](Cc2ccc(-c3ccccc3)nc2)NC(=O)CNC(=O)[C@H](Cc2ccc3ccccc3c2)N(C)C(=O)[C@H](Cc2ccc(OCCN)cc2)NC1=O [Conjugate 2-28] ({CH2CO}-[NMeA][NMehSer](Me)D[NMeQ][Phe(4-COOH)]T(Me)I[AEF][NMe2Nal]G[3Pal(6-Ph)][NMeC]-NH2; thioether N-12) | 0.3 |
| CC[C@H](C)[C@@H]1NC(=O)[C@H]([C@@H](C)OC)NC(=O)[C@H](Cc2ccc(C(=O)O)cc2)NC(=O)[C@H](CCC(N)=O)N(C)C(=O)[C@H](CC(=O)O)NC(=O)[C@H](CCOC)N(C)C(=O)[C@H](CCCCN)N(C)C(=O)CSC[C@@H](C(N)=O)N(C)C(=O)[C@H](Cc2ccc(-c3ccccc3)nc2)NC(=O)CNC(=O)[C@H](Cc2ccc3ccncc3c2)N(C)C(=O)[C@H](Cc2ccc(O)cc2)NC1=O [Conjugate 1] ({CH2CO}-[NMeK][NMehSer](Me)D[NMeQ][Phe(4-COOH)]T(Me)IY[NMeAla(isoquinolin-7-yl)]G[3Pal(6-Ph)][NMeC]-NH2; thioether N-12) | 0.2 |
| CC[C@H](C)[C@@H]1NC(=O)[C@H]([C@@H](C)OC)NC(=O)[C@H](Cc2ccc(C(=O)O)cc2)NC(=O)[C@H](CNC(=O)N2CCN(CC(=O)O)CC2)N(C)C(=O)[C@H](CC(=O)O)NC(=O)[C@H](CCCCNC(=O)N2CCN(CC(=O)O)CC2)N(C)C(=O)[C@H](CCCCN)N(C)C(=O)CSC[C@@H](C(N)=O)N(C)C(=O)[C@H](Cc2ccc(-c3ccccc3)nc2)NC(=O)CNC(=O)[C@H](Cc2ccc3ccncc3c2)N(C)C(=O)[C@H](Cc2ccc(OCC(=O)O)cc2)NC1=O [Conjugate 2-29] | 1 |
| CC[C@H](C)[C@@H]1NC(=O)[C@H](Cc2ccc(C(=O)O)cc2)NC(=O)[C@H](CCCCN)N(C)C(=O)[C@H](CC(=O)O)NC(=O)[C@H](CCC(N)=O)N(C)C(=O)[C@H](CCC(N)=O)N(C)C(=O)CSC[C@@H](C(N)=O)N(C)C(=O)[C@H](Cc2ccc(-c3cnn(C)c3)cc2)NC(=O)CNC(=O)[C@H](Cc2ccc3ccccc3c2)N(C)C(=O)[C@H](Cc2ccc(CC(=O)O)cc2)NC(=O)[C@H]([C@@H](C)CC)NC1=O [Conjugate 2-52] ({CH2CO}-[NMeQ][NMeQ]D[NMeK][Phe(4-COOH)]II[Phe(4-CH2COOH)][NMe2Nal]G[Phe(4-(1-Me-pyrazol-4-yl))][NMeC]-NH2; thioether N-12) | 1.6 |
| CC[C@H](C)[C@@H]1NC(=O)[C@H]([C@@H](C)OC)NC(=O)[C@H](Cc2ccc(C(=O)O)cc2)NC(=O)[C@H](CNC(=O)N2CCN(CC(=O)O)CC2)N(C)C(=O)[C@H](CC(=O)O)NC(=O)[C@H](CCOC)N(C)C(=O)[C@H](CNC(=O)N2CCN(CC(=O)O)CC2)N(C)C(=O)CSC[C@@H](C(N)=O)N(C)C(=O)[C@H](Cc2ccc(-c3ccccc3)nc2)NC(=O)CNC(=O)[C@H](Cc2ccc3ccccc3c2)N(C)C(=O)[C@H](Cc2ccc(OCCN)cc2)NC1=O [Conjugate 2-33] ({CH2CO}-[NMeDap]([CO-Piperazinyl(4-CH2COOH)])[NMehSer](Me)D[NMeDap]([CO-Piperazinyl(4-CH2COOH)])[Phe(4-COOH)]T(Me)I[AEF][NMe2Nal]G[3Pal(6-Ph)][NMeC]-NH2; thioether N-12 (inferred)) | 0.3 |
| CC[C@H](C)[C@@H]1NC(=O)[C@H]([C@@H](C)OC)NC(=O)[C@H](Cc2ccc(C(=O)O)cc2)NC(=O)[C@H](CCCCNC(=O)N2CCN(CC(=O)O)CC2)N(C)C(=O)[C@H](CC(=O)O)NC(=O)[C@H](CCCCNC(=O)N2CCN(CC(=O)O)CC2)N(C)C(=O)[C@H](CCCCN)N(C)C(=O)CSC[C@@H](C(N)=O)N(C)C(=O)[C@H](Cc2ccc(-c3ccccc3)nc2)NC(=O)CNC(=O)[C@H](Cc2ccc3ccncc3c2)N(C)C(=O)[C@H](Cc2ccc(OCC(=O)N3CCN(CC(=O)O)CC3)cc2)NC1=O [Conjugate 2-32] | 1.8 |
| CC[C@H](C)[C@@H]1NC(=O)[C@H]([C@H](O)OC)NC(=O)[C@H](Cc2ccc(C(=O)O)cc2)NC(=O)[C@H](CCC(N)=O)N(C)C(=O)[C@H](CC(=O)O)NC(=O)[C@H](CCOC)N(C)C(=O)[C@H](CCCCNC(=O)N2CCN(CC(=O)O)CC2)N(C)C(=O)CSC[C@@H](C(N)=O)N(C)C(=O)[C@H](Cc2ccc(-c3ccccc3)nc2)NC(=O)CNC(=O)[C@H](Cc2ccc3ccncc3c2)N(C)C(=O)[C@H](Cc2ccc(O)cc2)NC1=O [Conjugate 2-25] ({CH2CO}-[NMeK]([CO-Piperazinyl(4-CH2COOH)])[NMehSer](Me)D[NMeQ][Phe(4-COOH)][X1]IY[NMeAla(isoquinolin-7-yl)]G[3Pal(6-Ph)][NMeC]-NH2; thioether N-12) | 6.6 |
| CC[C@H](C)[C@@H]1NC(=O)[C@H]([C@@H](C)OC)NC(=O)[C@H](Cc2ccc(C(=O)O)cc2)NC(=O)[C@H](CCC(N)=O)N(C)C(=O)[C@H](CC(=O)O)NC(=O)[C@H]([C@@H](C)CC)N(C)C(=O)[C@H](CCCCN)N(C)C(=O)CSC[C@@H](C(N)=O)N(C)C(=O)[C@H](Cc2ccc(-c3ccccc3)nc2)NC(=O)CNC(=O)[C@H](Cc2ccc3ccncc3c2)N(C)C(=O)[C@H](Cc2ccc(OCC(=O)O)cc2)NC1=O [Conjugate 2-26] ({CH2CO}-[NMeK][NMeI]D[NMeQ][Phe(4-COOH)]T(Me)IY(Carboxymethyl)[NMeAla(isoquinolin-7-yl)]G[3Pal(6-Ph)][NMeC]-NH2; thioether N-12) | 0.3 |
| CC[C@H](C)[C@@H]1NC(=O)[C@H](Cc2ccc(C(=O)O)cc2)NC(=O)[C@H](CCC(N)=O)N(C)C(=O)[C@H](CC(=O)O)NC(=O)[C@H](CCC(N)=O)N(C)C(=O)[C@H](CCC(N)=O)N(C)C(=O)CSC[C@@H](C(N)=O)N(C)C(=O)[C@H](Cc2ccc(-c3cnn(C)c3)cc2)NC(=O)CNC(=O)[C@H](Cc2ccc3ccccc3c2)N(C)C(=O)[C@H](Cc2ccc(OCCN)cc2)NC(=O)[C@H]([C@@H](C)CC)NC1=O [Conjugate 2-53] ({CH2CO}-[NMeQ][NMeQ]D[NMeQ][Phe(4-COOH)]II[AEF][NMe2Nal]G[Phe(4-(1-Me-pyrazol-4-yl))][NMeC]-NH2; thioether N-12) | 1 |
| CC[C@H](C)[C@@H]1NC(=O)[C@H](Cc2ccc(C(=O)O)cc2)NC(=O)[C@H](CCC(N)=O)N(C)C(=O)[C@H](CCC(N)=O)NC(=O)[C@H]([C@@H](C)CC)N(C)C(=O)[C@H](CCCCN)N(C)C(=O)CSC[C@@H](C(N)=O)N(C)C(=O)[C@H](Cc2ccc(-c3cnn(C)c3)cc2)NC(=O)CNC(=O)[C@H](Cc2ccc3ccccc3c2)N(C)C(=O)[C@H](Cc2ccc(C(=O)O)cc2)NC(=O)[C@H]([C@@H](C)CC)NC1=O [Conjugate 2-46] ({CH2CO}-[NMeK][NMeI]Q[NMeQ][Phe(4-COOH)]II[Phe(4-COOH)][NMe2Nal]G[Phe(4-(1-Me-pyrazol-4-yl))][NMeC]-NH2; thioether N-12) | 0.2 |
| CC[C@H](C)[C@@H]1NC(=O)[C@H](Cc2ccc(C(=O)O)cc2)NC(=O)[C@H](CCC(N)=O)N(C)C(=O)[C@H](CC(=O)O)NC(=O)[C@H](CCOC)N(C)C(=O)[C@H](CCCCN)N(C)C(=O)CSC[C@@H](C(N)=O)N(C)C(=O)[C@H](Cc2ccc(-c3cnn(C)c3)cc2)NC(=O)CNC(=O)[C@H](Cc2ccc3ccccc3c2)N(C)C(=O)[C@H](Cc2ccc(CC(=O)O)cc2)NC(=O)[C@H]([C@@H](C)CC)NC1=O [Conjugate 2-48] ({CH2CO}-[NMeK][NMehSer](Me)D[NMeQ][Phe(4-COOH)]II[Phe(4-CH2COOH)][NMe2Nal]G[Phe(4-(1-Me-pyrazol-4-yl))][NMeC]-NH2; thioether N-12) | 0.5 |
| CC[C@H](C)[C@@H]1NC(=O)[C@H](Cc2ccc(C(=O)O)cc2)NC(=O)[C@H](CCC(N)=O)N(C)C(=O)[C@H](CC(=O)O)NC(=O)[C@H]([C@@H](C)CC)N(C)C(=O)[C@H](CCCCNC(C)=O)N(C)C(=O)CSC[C@@H](C(N)=O)N(C)C(=O)[C@H](Cc2ccc(-c3ccccc3)nc2)NC(=O)CNC(=O)[C@H](Cc2ccc3ccncc3c2)N(C)C(=O)[C@H](Cc2ccc(O)cc2)NC(=O)[C@H]([C@@H](C)CC)NC1=O [Conjugate 2-4] ({CH2CO}-[NMeK](Ac)[NMeI]D[NMeQ][Phe(4-COOH)]IIY[NMeAla(isoquinolin-7-yl)]G[3Pal(6-Ph)][NMeC]-NH2; thioether N-12) | 0.3 |

Each molecule was assayed against T1, Human Glypican3-Fc (ACRO Biosystems, GP3-H5258) (human, UniProt P51654 25-559) (assay: SPR (Biacore T200), Method B-3: Glypican3-Fc captured on Protein A chip, peptide as analyte). Details: not given.
T1 construct: Bought fusion protein, captured in Methods B-2, B-3 and B-4; Catalogue number is printed only in Method B-2; not shown: Fc part of the bought fusion
Procedure, shortened: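 Human Glypican3-Fc was captured on a Protein A chip (60 s, 10 μL/min) in HBS-P+ pH 7.4. The peptide was injected as analyte at a final 10 μM at 10 μL/min, with 120 s association and 600 s dissociation. Kinetics were fitted by single-cycle kinetics.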

| Molecule | Kd [nM] |
| --- | --- |
| B1 | 1.08 |
| B2 | 0.9 |
